Patent US10238631B2, “Sesquiterpene derivatives and their use in inflammation or cancer treatment” (Academia Sinica, priority 2014, dated 2019)
Like-named read-outs stand apart in the source and are kept apart here.

Experiments:
[1] = test system: NES-SA uterus cancer cell line; test: MTT cell viability assay, NES-SA; type: cell-based; conditions: 24 h
Procedure: (§1) Normal or cancer cells (2×10^3 to 1×10^4 cells/well) were seeded in 96-well plate for overnight and treated with different compounds for 24 h to 72 h. Cells growth were determined by MTT-based colorimetric assays according to. Viability of the test cells treated with vehicle (0.5% DMSO) only was defined as 100% viable. Survival of cells after treatment with DETDs was calculated using the following formula: viable cell number (%)=OD570 (treated cell culture)/OD570 (vehicle control)×100.
(§2) Based on toxicity results of DET and DETDs on different breast cancer and melanoma cell lines, we selected DETD-6, -32, -35 and -39, under the consideration of structure activity relationship for evaluating their suppression effect against other cancer types of cell line with indicated tumor origin in Table 5. […] The cells were treated with compounds for 24 h and then subjected to MTT assays.

[2] = test system: U-87MG brain cancer cell line; test: MTT cell viability assay, U-87MG; type: cell-based; conditions: Homo sapiens, 24 h
Procedure: as §1, §2

[3] = test system: MeWo (No NRAS or BRAF mutation); test: MTT cell viability assay, MeWo melanoma; type: cell-based, human; conditions: Homo sapiens, MeWo, 24 h
Procedure, shortened: (§3)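 MTT readout at OD570, normalised to 0.5% DMSO vehicle-treated cells set as 100% viable. Compound exposure lasted 24 h to 72 h after overnight seeding of 2×10^3 to 1×10^4 cells/well.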

[4] = test system: PC6 lung cancer cell line; test: MTT cell viability assay, PC6; type: cell-based; conditions: 24 h
Procedure: as §1, §2

[5] = test system: SK-N-MC neuroepithelioma line; test: MTT cell viability assay, SK-N-MC; type: cell-based; conditions: Homo sapiens, 24 h
Procedure: as §1, §2

[6] = test system: TS/A (ER+, Her2−) murine mammary cancer cells; test: MTT cell viability assay, TS/A cells; type: cell-based; conditions: Mus musculus
Procedure, shortened: (§4)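 MTT readout at OD570; % viable = treated/vehicle ×100, vehicle (0.5% DMSO) set as 100%. Seeding 2×10^3–1×10^4 cells/well overnight, compound exposure 24 h to 72 h.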

[7] = test system: Melanocyte (Normal cells); test: MTT cell viability assay, normal melanocytes; type: cell-based, human; conditions: Homo sapiens, Melanocyte, 24 h
Procedure, shortened: as §3

[8] = test system: HCT-116 colon cancer cell line; test: MTT cell viability assay, HCT-116; type: cell-based; conditions: Homo sapiens, 24 h
Procedure: as §1, §2

[9] = test system: LPS-induced nitric oxide (NO) production in RAW 264.7 cells; test: Nitric oxide production in LPS-stimulated macrophages (Griess); type: cell-based, mouse; conditions: Mus musculus; LPS-stimulated RAW264.7, nitrite 24 h after LPS
Procedure, shortened: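 RAW 264.7 macrophages (2×10^5 cells/well) were pretreated with compound for 1 h and then stimulated with 100 ng/μL LPS for 24 h. NO was measured as nitrite in the medium by the Griess reaction. Viability was checked in parallel by MTT.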

[10] = test system: RAW264.7 (normal macrophage); test: MTT cell viability assay, RAW264.7 macrophages; type: cell-based, mouse; conditions: Mus musculus, RAW264.7, 24 h
Procedure, shortened: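 RAW264.7 macrophages (2×10^5 cells/well) pretreated with compounds 1 h, then incubated 24 h with or without 100 ng/μL LPS. Viability by MTT colorimetric assay run in parallel with Griess nitrite measurement.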

U937 lymphoma line = test: MTT cell viability assay, U937; type: cell-based; conditions: Homo sapiens, U-937, 24 h
Procedure: as §1, §2

[11] = test system: A498 kidney cancer cell line; test: MTT cell viability assay, A498; type: cell-based; conditions: Homo sapiens, 24 h
Procedure: as §1, §2

[12] = test system: KATO III stomach cancer cell line; test: MTT cell viability assay, KATO III; type: cell-based; conditions: Homo sapiens, 24 h
Procedure: as §1, §2

A375 (BRAF mutation) = test: MTT cell viability assay, A375 melanoma; type: cell-based, human; conditions: Homo sapiens, A-375, 24 h, 24 h, MTT; read-out: IC50 on cell viability, A375 (BRAF mutation)
Procedure, shortened: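 A375 cells were seeded at 2×10^3 to 1×10^4 per well overnight and then exposed to compounds for 24 h to 72 h. Viability was measured by MTT absorbance at OD570 relative to 0.5% DMSO vehicle (100%), and IC50 was derived from it. Combination with PLX4032 was scored by combination index.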

B16-F10 (NRAS mutation) = test: MTT cell viability assay, B16-F10 melanoma; type: cell-based; conditions: Mus musculus, B16-F10, 24 h
Procedure, shortened: as §3

PC3 (Prostate) = test: MTT cell viability assay, PC3; type: cell-based; conditions: 24 h
Procedure: as §1, §2

HTB-68 (NRAS mutation) = test: MTT cell viability assay, HTB-68 melanoma; type: cell-based, human; conditions: Homo sapiens, 24 h
Procedure, shortened: as §3

[13] = test system: MDA-MB-231 (ER−, PR−, Her2−) human breast cancer cells; test: MTT cell viability assay, MDA-MB-231 cells; type: cell-based; conditions: for IC50: Homo sapiens
Procedure, shortened: as §4

[14] = test system: MCF-7 (ER+, Her2−) human breast cancer cells; test: MTT cell viability assay, MCF-7 cells; type: cell-based
Procedure, shortened: as §4

[15] = test system: M10 normal mammary epithelial cells; test: MTT cell viability assay, M10 normal cells; type: cell-based, human; conditions: Homo sapiens, Epithelial cell, 24 h
Procedure, shortened: as §4

A2058 (BRAF mutation) = test: MTT cell viability assay, A2058 melanoma; type: cell-based, human; conditions: Homo sapiens, A2058, 24 h
Procedure, shortened: as §3

[16] = test system: melanoma cell lines B16-F10, MeWo, A375, A2058, HTB-68; test: MTT cell viability assay, all melanoma cell lines; type: cell-based; conditions: 24 h, read-out: IC50 values over all types of melanoma cell lines
Procedure: as §1
Several genes are involved in melanoma development and pathology; specifically, mutation in V-raf murine sarcoma viral oncogene homolog B1 (B-RAF) occurs approximately 50-60% and in neuroblastoma RAS viral oncogene homolog (N-RAS) occurs about 30% of malignant melanomas. A spectrum of wild-type or mutated melanoma cell lines including B16-F10, MeWo, A375, A2058, HTB-68, and melanocyte were used to study anti-melanoma cell proliferation activity of parental phytocompound DET and newly synthesized DETDs.

[17] = test system: MDA-MB-231 lung metastasis; test: Lung metastasis of MDA-MB-231 cells in SCID mice; type: in vivo, mouse; conditions: post-treatment, 5 mg/kg i.p. every three days
Procedure: Female SCID mice (5 weeks old, average body weight 19.59±1.26 g) were assigned to 8 groups: PIX group (5 mg/kg paclitaxel), DETD-35-2 group (2 mg/kg DETD-35), DETD-35-10 group (10 mg/kg DETD-35). PTX-5+DETD-35-2 group (5 mg/kg paclitaxel and 2 mg/kg DETD-35 administration alternatively for eleven doses of paclitaxel (PTX) and ten doses of DETD-35 in total), tumor (vehicle) group (5% DMSO), and sham group (5% DMSO). Pre-DETD-35-10 group was the mice administered 10 mg/kg DETD-35 every two days for three doses before the i.v. injection of 1×10^6 MDA-MB-231 tumor cells at day 0. All other drug or compounds were administered i.p. every three days starting from day 1. At the end of experiment (day 71), the test mice were sacrificed by cervical dislocation. The lung, liver, kidney, and spleen organs were removed and recorded weights and calculated for organ index (% of organ weight/body weight). The number of tumor colonies on lungs of test mice was counted.

MDA-MB-231 cell invasion = test: Boyden chamber (Matrigel) invasion assay; type: cell-based, human; conditions: 24 h
Procedure: (§5) To test the anti-migratory and anti-invasive effect of DET. DETD-35 and PTX. Boyden chambers assay was carried out. The lower well of the chamber (6.5 mm diameter, […]; Costar. Cambridge, Mass., USA) was added 10% fetal bovine serum (FBS) as a chemoattractant and filled with DMEM culture medium containing vehicle (DMSO, 0.05%), DET (2.5 and 4 μM). DETD-35 (1.25 and 2.5 μM), or PTX (2.5 and 4 μM). MDA-MB-231 cells were placed into the upper chamber (5×10^4 cells per insert) with the medium containing 0.1% FBS. After 24 h incubation at 37° C. in a 5% CO2 atmosphere, non-migrating cells were scraped from the upper surface of the membrane using a cotton swab, and the migrated cells remaining in the well were fixed and stained with DAPI solution (4,6-diamidino-2-phenylindole, 1 μg/ml). The migrating cells were counted in three fields at 20× original magnifications by inverted fluorescence microscopy. To test the anti-invasive effect of the compounds, 8-μm filters were pre-coating with Matrigel (30 μg per filter) and incubated at 37° C. for 2 h, then followed the protocol of migration assay descried about.

[18] = test system: MDA-MB-231 cell migration; test: Boyden chamber migration assay; type: cell-based, human; conditions: 24 h
Procedure: as §5

[19] = 24 h, read-out: IC50 on cell viability, TS/A (ER+, Her2−)
[20] = 24 h, read-out: IC50 on cell viability, B16-F10 (NRAS mutation)
[21] = MDA-MB-231, 24 h, read-out: IC50 on cell viability, MDA-MB-231 (ER−, PR−, Her2−)
[22] = MCF7, 24 h, read-out: IC50 on cell viability, MCF-7 (ER+, Her2−)
[23] = higher concentrations (DET 4 μM, DETD-35 2.5 μM, PTX 4 μM)
[24] = lower concentrations (DET 2.5 μM, DETD-35 1.25 μM, PTX 2.5 μM)

SMILES	IC50 [3] [µM]	IC50 [6, 19] [µM]	IC50 [7] [µM]	IC50 [9] [µM]	IC50 [10] [µM]	IC50 (A375 (BRAF mutation)) [µM]	IC50 (B16-F10 (NRAS mutation); [20]) [µM]	IC50 (HTB-68 (NRAS mutation)) [µM]	IC50 [13, 21] [µM]	IC50 [14, 22] [µM]	IC50 [15] [µM]	IC50 (A2058 (BRAF mutation)) [µM]	IC50 [16] [µM]	other results
C=C1C(=O)O[C@H]2CC3=C[C@@H](C/C(C)=C/[C@@H](OC(=O)c4ccc(OC)cc4)[C@H]12)OC3=O [DETD-32]	> 10	1.9	> 10	2.6	> 10	> 10	4.2	> 10	3.9	4.3	> 7.5	> 10		IC50 [1]: 0.5 µM; IC50 [2]: 0.42 µM; IC50 [4]: 0.47 µM; IC50 [5]: 0.51 µM; IC50 ([6]; Table 5, 24 h, read-out: IC50 viability TS/A (mouse) (Breast)): 1.9 µM; IC50 [8]: 0.36 µM; IC50 (U937 lymphoma line): 0.39 µM; IC50 [11]: 1.48 µM; IC50 [12]: 0.82 µM; IC50 (B16-F10 (NRAS mutation); Table 5, 24 h, read-out: IC50 viability B16-F10 (mouse) (Skin)): 4.2 µM; IC50 (PC3 (Prostate)): 6.2 µM; IC50 ([13]; MDA-MB-231, Table 5, 24 h, read-out: IC50 viability MDA-MB-231 (Breast)): 3.9 µM; IC50 ([14]; MCF7, Table 5, 24 h, read-out: IC50 viability MCF-7 (Breast)): 4.3 µM
C=C1C(=O)OC2CC3=C[C@@H](C/C(C)=C/C(OC(=O)c4ccc(Br)cc4)[C@H]12)OC3=O (stereo partly shown) [DETD-34]	7.3	3	> 10	2.3	> 10	3.1	2	6.8	2.2	6.1	> 7.5	4.4	1.6 to 9.9	
C=C1C(=O)OC2CC3=C[C@@H](C/C(C)=C/C(OC(=O)Cc4cccc5cc(OC)ccc45)[C@H]12)OC3=O (stereo partly shown) [DETD-45]	4.5	2	> 10	2.8	> 10	1.7	4.5	3.5	3.1	3.1	4.7	3.6	1.6 to 9.9	
C=C1C(=O)OC2CC3=C[C@@H](C/C(C)=C/C(OC(=O)/C=C/c4ccc(Cl)cc4)[C@H]12)OC3=O (stereo partly shown) [DETD-28]	6.7	1.8	> 10	2.1	> 10	3	3.9	6.1	4.2	3.6	4.8	4.4	1.6 to 9.9	
C=C1C(=O)OC2CC3=C[C@@H](C/C(C)=C/C(OC(=O)c4ccc(C)cc4)[C@H]12)OC3=O (stereo partly shown) [DETD-33]	6.7	1.8	> 10	1.9	> 10	2.9	2.2	5.9	4.2	2.7	> 7.5	4.2	1.6 to 9.9	
C=C1C(=O)OC2CC3=C[C@@H](C/C(C)=C/[C@@H](OC(=O)/C=C/c4ccc5c(c4)OCO5)[C@H]12)OC3=O (stereo partly shown) [DETD-61]	6.6	2.5	> 10	3.1	> 10	2.6	6	5.5	3.4	3.6	4.7	5.2	1.6 to 9.9	
C=C1C(=O)OC2CC3=C[C@@H](C/C(C)=C/[C@@H](OC(=O)[C@@H](OC)c4ccc5ccccc5c4)[C@H]12)OC3=O (stereo partly shown) [DETD-56]	7.6	1.9	> 10	3	> 10	2.5	5.3	4.5	4.2	4.5	> 7.5	5.2	1.6 to 9.9	
CC(=O)O[C@H]1C(=O)[C@@]2(C)[C@H]([C@H](OC(=O)c3ccccc3)[C@]3(O)C[C@H](OC(=O)[C@H](O)[C@@H](NC(=O)c4ccccc4)c4ccccc4)C(C)=C1C3(C)C)[C@]1(OC(C)=O)CO[C@@H]1C[C@@H]2O [PTX, paclitaxel]														reduction of number of tumor foci in lungs vs tumor control [17]: 62%; inhibition of cell invasion (MDA-MB-231 cell invasion; [23]): 90%; inhibition of cell invasion (MDA-MB-231 cell invasion; [24]): 85%; reduction of cell migration vs vehicle control [18, 23]: 88%; suppression of cell migration vs vehicle control [18, 24]: 87%; IC60 on MDA-MB-231 cells ([13]; 24 h): 0.0238 µM
